In paper PMC9904277, “Rational design of Harakiri (HRK)-derived constrained peptides as BCL-xL inhibitors” (Chemical Communications (Cambridge, England), 2023):
*1 amine or outer side, *2 acyl side, *3 side chain or, on linkers, in order; H or OH if unused. Where a SMILES comes first, the peptide text is derived from it. Bridges are numbered along the chain shown (N, C = ends). [ ]: non-standard residue; d: D form. The star is where a group is joined. 5FAM = O=C1OC2(c3ccc(O)cc3Oc3cc(O)ccc32)c2ccc(C(=O)*)cc21; Maleimide(3,4-diyl) = O=C1NC(=O)C([*:2])=C1[*:1]; Nle = CCCC[C@H](N)C(=O)O; Ahx = NCCCCCC(=O)O

Columns and labels:
MCL-1 [1] = target: T1, MCL-1 (Homo sapiens, UniProt Q07820); conditions: IC50 HRK/MCL-1 divided by IC50 HRK/BCL-xL
MCL-1 [2] = target: T1, MCL-1; assay: biochemical
BCL-xL = target: T2, BCL-xL (Homo sapiens, UniProt Q07817, DEL27-82); assay: Direct FA titration of FAM-labelled tracer with BCL-xL; type: binding; conditions: FAM-Ahx-Beclin-1 150 nM, BCL-xL 6 nM-125 μM, 25 mM Tris, 150 mM NaCl, pH 7.4, 20 °C
T2 construct: BCL-2, 1-209; His-SUMO (N, cleaved yes); made in house; host or cells: E. coli BL21
T2 sequence (Q07817 with tags, fused parts or gaps DEL27-82): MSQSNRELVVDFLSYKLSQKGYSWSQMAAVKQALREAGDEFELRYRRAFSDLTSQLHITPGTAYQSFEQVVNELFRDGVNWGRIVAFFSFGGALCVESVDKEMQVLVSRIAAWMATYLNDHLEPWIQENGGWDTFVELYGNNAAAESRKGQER

T1 sequence (Q07820 172-327): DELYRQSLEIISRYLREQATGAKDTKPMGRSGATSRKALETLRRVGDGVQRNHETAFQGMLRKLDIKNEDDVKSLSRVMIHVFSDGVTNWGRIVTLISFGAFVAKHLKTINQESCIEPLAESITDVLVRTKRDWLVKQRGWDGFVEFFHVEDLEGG

| Compound | IC50 ratio MCL-1 : BCL-xL (selectivity index) (MCL-1 [1]) | IC50 (MCL-1 [2]) [µM] | Kd (BCL-xL) [µM] |
| --- | --- | --- | --- |
| Ac-SAAQLYAARLKAFGDEFHQ-NH2 [HRK-hybrid] | >55.5 | > 50 | – |
| Ac-SAAQLYAARLKALGDEFHQ-NH2 [HRK-2] | > 45.4 | > 50 | – |
| Ac-SAAQLLAARLKAFGDEFHQ-NH2 [HRK-5] | 16.0 | 16 ± 4.4 | – |
| CC(=O)N[C@@H](CO)C(=O)N[C@@H](C)C(=O)N[C@@H](C)C(=O)N[C@@H](CCC(N)=O)C(=O)N[C@@H](CC(C)C)C(=O)N[C@@H](Cc1ccc(O)cc1)C(=O)N[C@@H](C)C(=O)N[C@H]1CSC2=C(SC[C@@H](C(=O)N[C@@H](Cc3ccccc3)C(=O)NCC(=O)N[C@@H](CC(=O)O)C(=O)N[C@@H](CCC(=O)O)C(=O)N[C@@H](Cc3ccccc3)C(=O)N[C@@H](Cc3c[nH]cn3)C(=O)N[C@@H](CCC(N)=O)C(N)=O)NC(=O)[C@H](CCCCN)NC(=O)[C@H](CC(C)C)NC(=O)[C@H](CCCNC(=N)N)NC1=O)C(=O)NC2=O [HRKS4H] (Ac-SAAQLYACRLKCFGDEFHQ-NH2; linker 8-12 via Maleimide(3,4-diyl)) | >5.9 | > 50 | – |
| CSCC[C@H](NC(=O)[C@@H](NC(=O)[C@H](CCCNC(=N)N)NC(=O)[C@H](CCC(N)=O)NC(=O)[C@H](Cc1c[nH]cn1)NC(=O)[C@H](CC(C)C)NC(=O)[C@H](CCC(=O)O)NC(=O)[C@H](CC(=O)O)NC(=O)CNC(=O)[C@H](CC(C)C)NC(=O)[C@H](CS)NC(=O)[C@H](CCCCN)NC(=O)[C@H](CC(C)C)NC(=O)[C@H](CCCNC(=N)N)NC(=O)[C@H](CS)NC(=O)[C@H](C)NC(=O)[C@@H](NC(=O)[C@H](CC(C)C)NC(=O)[C@H](CCC(N)=O)NC(=O)[C@H](C)NC(=O)[C@H](C)NC(=O)[C@H](CO)NC(C)=O)[C@@H](C)O)[C@@H](C)O)C(=O)N[C@@H](Cc1c[nH]c2ccccc12)C(N)=O [HRKC4] (Ac-SAAQLTACRLKCLGDELHQRTMW-NH2) | – | 3.9 ± 0.2 | – |
| Ac-SAAQLYAARLKALGDELHQ-NH2 [HRK-1] | > 5.8 | > 50 | – |
| Ac-SAAQLLAARLKALGDELHQ-NH2 [HRK-4] | 2.5 | 3.5 ± 1.2 | – |
| CC[C@H](C)[C@H](NC(=O)[C@H](CC(=O)O)NC(=O)[C@H](Cc1ccccc1)NC(=O)[C@H](CC(C)C)NC(=O)[C@H](CC(=O)O)NC(=O)CNC(=O)[C@@H](NC(=O)[C@@H](NC(=O)[C@H](CCCCN)NC(=O)[C@H](CC(C)C)NC(=O)[C@H](CCCNC(=N)N)NC(=O)[C@H](CCCNC(=N)N)NC(=O)[C@H](CO)NC(=O)[C@H](CC(C)C)NC(=O)[C@H](CC(N)=O)NC(=O)[C@H](CCC(=O)O)NC(=O)[C@H](CCSC)NC(=O)[C@@H](NC(=O)CCCCCNC(=O)c1ccc2c(c1)C(=O)OC21c2ccc(O)cc2Oc2cc(O)ccc21)[C@@H](C)O)C(C)C)[C@@H](C)O)C(=O)N[C@@H](CCSC)C(=O)N[C@@H](CO)C(N)=O [FAM-Ahx-Beclin-1] ({5FAM-Ahx}-TMENLSRRLKVTGDLFDIMS-NH2) | – | – | 9.7 ± 2.3 |
| CCCC[C@H](NC(=O)[C@H](C)NC(=O)[C@H](CCCCN)NC(=O)[C@H](CC(C)C)NC(=O)[C@H](CCCNC(=N)N)NC(=O)[C@H](C)NC(=O)[C@H](C)NC(=O)[C@H](Cc1ccc(O)cc1)NC(=O)[C@H](CC(C)C)NC(=O)[C@H](CCC(N)=O)NC(=O)[C@H](C)NC(=O)[C@H](C)NC(=O)[C@H](CO)NC(C)=O)C(=O)NCC(=O)N[C@@H](CC(=O)O)C(=O)N[C@@H](CCC(=O)O)C(=O)N[C@@H](Cc1ccccc1)C(=O)N[C@@H](Cc1c[nH]cn1)C(=O)N[C@@H](CCC(N)=O)C(N)=O [HRK-3] (Ac-SAAQLYAARLKA[Nle]GDEFHQ-NH2) | – | > 50 | – |
| Ac-SAAQLTAARLKALGDELHQ-NH2 [HRK-s] | > 2.3 | > 50 | – |
| CSCC[C@H](NC(=O)[C@H](CCCNC(=N)N)NC(=O)[C@H](CCCNC(=N)N)NC(=O)[C@H](CC(C)C)NC(=O)[C@H](CCC(=O)O)NC(=O)[C@H](CCCNC(=N)N)NC(=O)CNC(=O)[C@H](Cc1ccc(O)cc1)NC(=O)[C@H](CCCNC(=N)N)NC(=O)[C@H](CCC(N)=O)NC(=O)[C@H](C)NC(=O)[C@H](C)NC(=O)[C@H](Cc1c[nH]c2ccccc12)NC(=O)[C@H](CC(C)C)NC(=O)[C@H](CC(N)=O)NC(C)=O)C(=O)N[C@@H](CO)C(=O)N[C@@H](CC(=O)O)C(=O)N[C@@H](CCC(=O)O)C(=O)N[C@@H](Cc1ccccc1)C(=O)N[C@H](C(=O)N[C@@H](CC(=O)O)C(=O)N[C@@H](CO)C(=O)N[C@@H](Cc1ccccc1)C(=O)N[C@@H](CCCCN)C(=O)N[C@@H](CCCCN)C(N)=O)C(C)C [BAD-wt, reference compound] | – | > 50 | – |
| Ac-RYGRELRRMSDEFVDSFKK-NH2 [BAD-s, reference compound] | – | > 50 | – |
| CC(=O)N[C@@H](CO)C(=O)N[C@@H](C)C(=O)N[C@@H](C)C(=O)N[C@@H](CCC(N)=O)C(=O)N[C@@H](CC(C)C)C(=O)N[C@@H](Cc1ccc(O)cc1)C(=O)N[C@@H](C)C(=O)N[C@@H](CS)C(=O)N[C@@H](CCCNC(=N)N)C(=O)N[C@@H](CC(C)C)C(=O)N[C@@H](CCCCN)C(=O)N[C@@H](CS)C(=O)N[C@@H](Cc1ccccc1)C(=O)NCC(=O)N[C@@H](CC(=O)O)C(=O)N[C@@H](CCC(=O)O)C(=O)N[C@@H](Cc1ccccc1)C(=O)N[C@@H](Cc1c[nH]cn1)C(=O)N[C@@H](CCC(N)=O)C(N)=O [HRKC4H] (Ac-SAAQLYACRLKCFGDEFHQ-NH2) | >2.5 | > 50 | – |
